Like-named read-outs stand apart in the source and are kept apart here.
Experiments:
LOVO = test: cells; design: SRB anti-proliferation assay against a panel of human tumour cell lines; details: Homo sapiens, LoVo
Procedure: (§1) The anti-proliferative activity of S9 was measured with SRB assay against a panel of human tumor cells, including oral epidermoid cancer, lung cancer, liver cancer, colon cancer, rhabdomyosarcoma, ovarian cancer, osteosarcoma, breast cancer, cervix cancer, stomach cancer, prostate cancer and leukemia cells. […] This advantage was also observed in the mini-set of colon cancer cell lines (Fig. 6A). […] A) Antiproliferative activity of S9 and wortmannin against a wide panel of tumor cell lines. IC50s plotted as mean±SD (µM) were from three separate experiments. B) Resistance factor (RF) of S9 and reference compounds in drug-resistant cancer cells. RF was calculated as the ratio of the IC50 value of the drug-resistant cells to that of the corresponding parental cells. C) S9 induces rapid apoptosis in human cancer cells. Rh30, A375, MKN-28 and U2OS cells were treated with S9 for 8 h. Apoptosis was measured by Annexin V-PI double staining. Apoptosis measured as Annexin-V positive cells were plotted. Data shown were mean±SD from three independent experiments. D) Rh30 (left panel) and SMMC7721 (right panel) xenograft growth inhibition after administration of S9. Rh30 and SMMC7721 nude mice were subcutaneously inoculated with a tumor fragment. The animals were randomly divided in groups when tumor volume reached 100 to 200 mm^3 and received i.p. injection of normal saline or S9 five times a week for two weeks. Tumor volumes were measured and relative tumor volumes were calculated as tumor volumeDn/tumor volumeD0. Data shown are the mean of six mice. Human colorectal carcinoma LOVO, human breast carcinoma MDA-MB-468, human prostate carcinoma PC3, human osteosarcoma U2OS cells were from American Type Culture Collection (ATCC, Manassas, VA); human lung adenocarcinoma NCI-H23 cells were obtained from the National Cancer Institute (NCI); rhabdomyosarcoma (RMS) Rh30 cells were generous gift from Dr. P.J. Houghton (St. Jude Children's Research Hospital, Memphis, TN). MDA-MB-468, Rh30, LOVO, NCI-H23 and U2OS cells were grown in RPMI-1640 medium supplemented with 10% (v/v) fetal bovine serum (FBS; GIBCO, Grand Island, NY), 2 mM L-glutamine, 100 U/ml benzylpenicillin, 100 µg/ml streptomycin and 10 mM HEPES (pH 7.4). PC3 cells were grown in Ham's F12 (GIBCO, Grand Island, NY) with 10% FBS. CHO (pCORON1000-EGFP-Akt) was purchased from GE Healthcare (EGFP: Enhanced Green Fluorescence Protein) and propagated in F-12 Ham medium with Glutamax supplemented with 10% FBS, penicillin-streptomycin (50 U/ml) and geneticin (0.5 mg/ml, Sigma-Aldrich, St. Louis, MO). Rest of cells used in this study were grown as described previously. All cells were cultured in a highly humidified atmosphere containing 5% CO2 at 37°C.

Rh30 = test: cells; design: SRB anti-proliferation assay against a panel of human tumour cell lines; details: Rh30
Procedure: as §1

MDA-MB-468 = test: cells; design: SRB anti-proliferation assay against a panel of human tumour cell lines; details: Homo sapiens, MDA-MB-468
Procedure: as §1

MKN-28 = test: cells; design: SRB anti-proliferation assay against a panel of human tumour cell lines; details: Homo sapiens, MKN-28
Procedure: as §1

HT-29 = test: cells; design: SRB anti-proliferation assay against a panel of human tumour cell lines; details: Homo sapiens, HT-29
Procedure: as §1

KB-3-1 = test: cells; design: SRB anti-proliferation assay against a panel of human tumour cell lines; details: Homo sapiens, KB 3-1
Procedure: as §1

NCI-H23 = test: cells; design: SRB anti-proliferation assay against a panel of human tumour cell lines; details: Homo sapiens, NCI-H23
Procedure: as §1

K562/G01 = test: cells; design: SRB anti-proliferation assay against a panel of human tumour cell lines; details: Homo sapiens, K562
Procedure: as §1

SGC-7901 = test: cells; design: SRB anti-proliferation assay against a panel of human tumour cell lines; details: Homo sapiens, SGC-7901
Procedure: as §1

Rh30/rapa = test: cells; design: SRB anti-proliferation assay against a panel of human tumour cell lines; details: Rh30
Procedure: as §1

SK-OV-3 = test: cells; design: SRB anti-proliferation assay against a panel of human tumour cell lines; details: Homo sapiens, SK-OV-3
Procedure: as §1

KB-8-5-11 = test: cells; design: SRB anti-proliferation assay against a panel of human tumour cell lines
Procedure: as §1

HL60 = test: cells; design: SRB anti-proliferation assay against a panel of human tumour cell lines; details: Homo sapiens, HL-60
Procedure: as §1

K562 = test: cells; design: SRB anti-proliferation assay against a panel of human tumour cell lines; details: Homo sapiens, K562
Procedure: as §1

U2OS = test: cells; design: SRB anti-proliferation assay against a panel of human tumour cell lines; details: Homo sapiens, U2OS
Procedure: as §1

A549 = test: cells; design: SRB anti-proliferation assay against a panel of human tumour cell lines; details: Homo sapiens, A549
Procedure: as §1

HL60/MX2 = test: cells; design: SRB anti-proliferation assay against a panel of human tumour cell lines; details: Homo sapiens, HL60/MX2
Procedure: as §1

HCT-116 = test: cells; design: SRB anti-proliferation assay against a panel of human tumour cell lines; details: Homo sapiens, HCT-116
Procedure: as §1

KB-V1 = test: cells; design: SRB anti-proliferation assay against a panel of human tumour cell lines; details: Homo sapiens, KB-V1
Procedure: as §1

MCF-7/ADR = test: cells; design: SRB anti-proliferation assay against a panel of human tumour cell lines; details: Homo sapiens, NCI/ADR-RES
Procedure: as §1

Hep-G2 = test: cells; design: SRB anti-proliferation assay against a panel of human tumour cell lines; details: Homo sapiens, HepG2
Procedure: as §1

tubulin = biological target: T1, tubulin; test: SPR (Biacore); supported by colchicine fluorescence competition, polymerization of purified pork tubulin and CD; assay type: binding, Sus scrofa
T1 construct: gene TUBB; purified tubulin (Cytoskeleton, Denver) immobilized on CM5 chip; with alpha-tubulin

BEL-7402 = test: cells; design: SRB anti-proliferation assay against a panel of human tumour cell lines; details: Homo sapiens, Bel-7402; read-out: IC50 (μM) S9
Procedure: as §1

OV-CAR-5 = test: cells; design: SRB anti-proliferation assay against a panel of human tumour cell lines; details: Homo sapiens, OVCAR-5; read-out: IC50 (μM) S9
Procedure: as §1

Hela = test: cells; design: SRB anti-proliferation assay against a panel of human tumour cell lines; details: Homo sapiens, HeLa; read-out: IC50 (μM) S9
Procedure: as §1

PC3 = test: cells; design: SRB anti-proliferation assay against a panel of human tumour cell lines; details: Homo sapiens, PC-3; read-out: IC50 (μM) S9
Procedure: as §1

KB-8-5 = test: cells; design: SRB anti-proliferation assay against a panel of human tumour cell lines; details: read-out: IC50 (μM) S9
Procedure: as §1

MCF-7 = test: cells; design: SRB anti-proliferation assay against a panel of human tumour cell lines; details: Homo sapiens, MCF7; read-out: IC50 (μM) S9
Procedure: as §1

Rh1 = test: cells; design: SRB anti-proliferation assay against a panel of human tumour cell lines; details: Homo sapiens, RH-1; read-out: IC50 (μM) S9
Procedure: as §1

MKN-45 = test: cells; design: SRB anti-proliferation assay against a panel of human tumour cell lines; details: Homo sapiens, MKN-45; read-out: IC50 (μM) S9
Procedure: as §1

K562/A02 = test: cells; design: SRB anti-proliferation assay against a panel of human tumour cell lines; details: Homo sapiens, K562/A02; read-out: IC50 (μM) S9
Procedure: as §1

COC[C@H]1OC(=O)c2coc3c2[C@@]1(C)C1=C(C3=O)[C@@H]2CCC(=O)[C@@]2(C)C[C@H]1OC(C)=O [wortmannin]
IC50 (LOVO; read-out: IC50 (μM) wortmannin): 12.2 ± 0.42 µM | IC50 (Rh30; read-out: IC50 (μM) wortmannin): 11 ± 3.02 µM | IC50 (MDA-MB-468; read-out: IC50 (μM) wortmannin): 29.3 ± 6.6 µM | IC50 (MKN-28; read-out: IC50 (μM) wortmannin): 12.8 ± 2.8 µM | IC50 (HT-29; read-out: IC50 (μM) wortmannin): 18 ± 2.4 µM | IC50 (KB-3-1; read-out: IC50 (μM) wortmannin): 27.2 ± 3.2 µM | IC50 (NCI-H23; read-out: IC50 (μM) wortmannin): 5.57 ± 1.15 µM | IC50 (K562/G01; read-out: IC50 (μM) wortmannin): 10.4 ± 4.52 µM | IC50 (SGC-7901; read-out: IC50 (μM) wortmannin): 3.94 ± 1.74 µM | IC50 (Rh30/rapa; read-out: IC50 (μM) wortmannin): 0.73 ± 0.51 µM | IC50 (SK-OV-3; read-out: IC50 (μM) wortmannin): 18 ± 6.3 µM | IC50 (KB-8-5-11; read-out: IC50 (μM) wortmannin): 15.7 ± 4.1 µM | IC50 (HL60; read-out: IC50 (μM) wortmannin): 7.55 ± 2.84 µM | IC50 (K562; read-out: IC50 (μM) wortmannin): 54.8 ± 6.3 µM | IC50 (U2OS; read-out: IC50 (μM) wortmannin): 26.7 ± 4.31 µM | IC50 (A549; read-out: IC50 (μM) wortmannin): 9.33 ± 6.1 µM | IC50 (HL60/MX2; read-out: IC50 (μM) wortmannin): 1.47 ± 0.6 µM | IC50 (HCT-116; read-out: IC50 (μM) wortmannin): 41.5 ± 4.5 µM | IC50 (KB-V1; read-out: IC50 (μM) wortmannin): 16.8 ± 2.2 µM | IC50 (MCF-7/ADR; read-out: IC50 (μM) wortmannin): 47.2 ± 6.45 µM | IC50 (Hep-G2; read-out: IC50 (μM) wortmannin): 12.3 ± 2.6 µM

C=C1CC(Cn2c(-c3ccccc3)cc3cc(OCOC)ccc32)OC1=O (stereo not shown) [S9]
Kd (tubulin): 11.1 µM | IC50 (LOVO; read-out: IC50 (μM) S9): 5.05 ± 0.5 µM | IC50 (Rh30; read-out: IC50 (μM) S9): 3.24 ± 1.2 µM | IC50 (MDA-MB-468; read-out: IC50 (μM) S9): 14.1 ± 4.6 µM | IC50 (MKN-28; read-out: IC50 (μM) S9): 2.38 ± 0.39 µM | IC50 (HT-29; read-out: IC50 (μM) S9): 5.88 ± 0.28 µM | IC50 (KB-3-1; read-out: IC50 (μM) S9): 20.2 ± 3.8 µM | IC50 (NCI-H23; read-out: IC50 (μM) S9): 9.02 ± 0.05 µM | IC50 (K562/G01; read-out: IC50 (μM) S9): 2.17 µM | IC50 (BEL-7402): 11.8 ± 1.6 µM | IC50 (OV-CAR-5): 15.4 ± 2.9 µM | IC50 (SGC-7901; read-out: IC50 (μM) S9): 11.6 ± 2.41 µM | IC50 (Hela): 6.36 ± 1.51 µM | IC50 (Rh30/rapa; read-out: IC50 (μM) S9): 3.85 ± 0.95 µM | IC50 (PC3): 5.34 ± 1.39 µM | IC50 (KB-8-5): 28.8 ± 7.3 µM | IC50 (MCF-7): 4.86 ± 1.34 µM | IC50 (Rh1): 6.14 ± 0.05 µM | IC50 (SK-OV-3; read-out: IC50 (μM) S9): 25.5 ± 0.1 µM | IC50 (KB-8-5-11; read-out: IC50 (μM) S9): 14.9 ± 1.3 µM | IC50 (HL60; read-out: IC50 (μM) S9): 2.25 ± 0.74 µM | IC50 (MKN-45): 2.62 ± 0.26 µM | IC50 (K562/A02): 2.5 ± 0.01 µM | IC50 (K562; read-out: IC50 (μM) S9): 2.2 ± 0.33 µM | IC50 (U2OS; read-out: IC50 (μM) S9): 5.9 ± 0.38 µM | IC50 (A549; read-out: IC50 (μM) S9): 14.8 ± 2.2 µM | IC50 (HL60/MX2; read-out: IC50 (μM) S9): 2.41 ± 1.28 µM | IC50 (HCT-116; read-out: IC50 (μM) S9): 19.6 ± 1.9 µM | IC50 (KB-V1; read-out: IC50 (μM) S9): 13.3 ± 2.2 µM | IC50 (MCF-7/ADR; read-out: IC50 (μM) S9): 5.73 ± 1.68 µM | IC50 (Hep-G2; read-out: IC50 (μM) S9): 4.55 ± 1.8 µM

Reference: publication PMC2654064, “S9, a Novel Anticancer Agent, Exerts Its Anti-Proliferative Activity by Interfering with Both PI3K-Akt-mTOR Signaling and Microtubule Cytoskeleton” (PLoS ONE, 2009)
